Test system: glycation cross-linking between bovine albumin and glucose
Assay: Anti-glycation activity: fluorescence of bovine albumin-glucose adduct (AGE) after incubation
Type: biochemical
Details: 10 mM, 8 days 37° C.
Protocol: The effect of the extract of Diospyros kaki was studied in vitro on a model based on the measurement of the formation of the derivatives of the glycation reaction between lysine and glucose 6-phosphate. Certain of these derivatives (AGE) are fluorescent. The reaction was measured after […] of incubation.
A reference molecule was tested in parallel: aminoguanidine.
The test system is the reaction mixture containing bovine albumin ([…]) and glucose (500 mM) in a phosphate buffer (0.2 M, pH=7.4.).
The products were mixed with the test system in sterile tubes; the tubes were covered with aluminum foil (the reaction must take place shielded from light).
For the experimental conditions in which certain reagents or products are not present, the volume of the QSP tube should be completed with MilliQ water.
After having sealed the openings of the tubes with parafilm (the reaction must take place without oxygen), the different reaction media were placed in a dry oven at 37° C. for 8 days.
After 8 days of incubation, 100 μl was collected from each tube and transferred to a 96-well black plate.
The fluorescence was then read using FLUOstar (BMG) (excitation at 355 nm, emission at 460 nm). The results are expressed in arbitrary fluorescence units.
The relative fluorescence for the “product+bovine albumin” (=interference) is to be subtracted from the “product+bovine albumin+glucose” data.
After 8 days of incubation of bovine albumin with an overcharge of glucose, the formation of glycation cross-linking was seen. It was evaluated by taking advantage of the fluorescence properties of the bovine albumin-glucose adduct.

With `N=C(N)NN` [Aminoguanidine, aminoguanidine] the “% inhibition of the glycation” value (BSA + glucose) was 100%, the Intensity of fluorescence (BSA + glucose, ex 355 nm / em 460 nm) was 13,011.5 arbitrary units and the “Intensity of real fluorescence” value (interference subtracted) was 0 arbitrary units.

Reference: US20050186172A1, “Cosmetic composition capable of fighting against skin aging” (Laboratoires Clarins, a corporation of France, priority 2002, published 2005)
